Data from PMC5842390, “Protection Efficacy of C5A Against Vaginal and Rectal HIV Challenges in Humanized Mice” (The Open Virology Journal, 2018).
Like-named read-outs stand apart in the source and are kept apart here. Ends that are not written are not given here.

Assays:
[1] = tested on: simian-human immunodeficiency virus (SHIV-162P3); conditions: vaginal application of C5A; ref 58 (b36 prints ref 57); cited from earlier work
Text: In the absence of a safe and effective vaccine, there is an imperative demand for effective agents to reduce the 7,000 new HIV infections occurring every day. An attractive possibility is to identify the best drugs and drug combinations, delivered by optimal nBP methods such Intravaginal Rings (IVRs) for vaginal delivery and gels or enemas for rectal protection. We previously reported that C5A, a short, amphipathic, 18 amino acid (SWLRDIWDWICEVLSDFK) helical peptide, inhibits in vitro infectivity of a broad range of primary HIV isolates in various primary target cells. In this study, we ... || Following these studies with unformulated C5A solutions applied topically, the next goal is to formulate C5A, alone and in combination with other antiretroviral agents, into murine intravaginal rings to evaluate sustained topical delivery approaches for protection against vaginal and rectal HIV challenges. We plan on using a combination of drugs with distinct mechanisms of action.

[2] = macaques vaginally treated with repeated C5A applications; cited from earlier work
Text: Following these studies with unformulated C5A solutions applied topically, the next goal is to formulate C5A, alone and in combination with other antiretroviral agents, into murine intravaginal rings to evaluate sustained topical delivery approaches for protection against vaginal and rectal HIV challenges. We plan on using a combination of drugs with distinct mechanisms of action.

HSV = conditions: Vero cells, human dendritic cells, primary genital epithelial cells in vitro, human epidermis ex vivo; cited from earlier work
Text: Previous studies have shown that C5A inhibits HSV infection of Vero cells, human dendritic cells and primary genital epithelial cells in vitro as well as human epidermis (epidermal sheets) ex vivo, and that it inhibits acyclovir- and ganciclovir-resistant HSV isolates. Remarkably, in an in vitro transwell assay, C5A prevented HIV transmigration by preserving the integrity of the genital epithelium that ...

HIV JR-CSF = format: in vivo, humanized BLT mice; conditions: for Slope parameter (m) of median-effect plot: median-effect model, analogous to Hill coefficient; for EC50: sigmoidal dose-response (variable slope) model, 6.25-200 µM, n=10 per concentration
Text: Humanized BLT mice were created as described previously, by implanting 1-mm^3 pieces of human fetal liver and thymus tissues (Advanced Bioscience Resources) under the kidney capsule of 6- to 8-week-old female NSG mice (Jackson Laboratories) bred at The Scripps Research Institute (TSRI). Each cohort was produced with tissues from a single donor. CD34+ hematopoietic stem and progenitor cells (HSPC) were purified from autologous fetal liver tissue, isolated by magnetic bead selection for CD34+ cells (Miltenyi), phenotyped by flow cytometry, and cryopreserved until injection (200,000-350,000 CD34+ cells) into mice 3 weeks after fetal liver and thymus tissue implantation. Human cell population reconstitution in peripheral blood was confirmed by flow cytometry as described previously. Briefly, the degree of humanization of the BLT mice was evaluated at 20 weeks of age (10 weeks post-CD34+ HSPC injection) by analysis of percentages of human CD45+ cells and human CD45+ CD4+ CD3+ cells in peripheral blood by FACS. Mice with <65% human CD45+ cells and <70% human CD45+ CD4+ CD3+ cells were not used for HIV exposure experiments. Mice were kept at the Department of Animal Resources at TSRI in accordance with protocols approved by the TSRI Institutional Animal Care and Use Committee.
Solutions of C5A peptides were prepared in phosphate buffered saline (PBS). After verifying the reconstitution of mice with human cells, a dose ranging study was conducted to determine the EC50 of C5A for preventing vaginal and rectal HIV infection. Stocks of HIV JR-CSF were prepared as previously described and standardized by p24 ELISA. Prior to inoculation, mice were anesthetized with isoflurane. Aliquots of C5A in PBS (5 µL) were administered vaginally or rectally in decreasing concentrations (200, 100, 50, 25, 12.5 and 6.25 µM; n=10 mice per concentration). Fifteen minutes post-C5A topical administration, mice were challenged (vaginal challenge for vaginal C5A administration, rectal challenge for C5A rectal administration) with HIV.
Infection of BLT mice was analyzed by quantifying HIV RNA levels in peripheral blood (plasma) using one-step reverse transcriptase quantitative real-time PCR (ABI custom TaqMan Assays-by-Design) according to the manufacturer’s instructions. Primers were 5-[…]-3 and 5-TGCTTGATGT CCCCCCACT-3, and MGB-probe 5-FAM-[…]-Q-3, where FAM is 6-carboxyfluorescein [36-38, 40, 42, 44-47, 52-54]. The assay sensitivity was of […] 400 RNA copies per mL.
Data were analyzed using GraphPad Prism (version 7.00, GraphPad Software, Inc., La Jolla, CA). Analytic simulations of dose-response curves using the median-effect principle and mass-action law, and its combination index theorem were carried out using CompuSyn.

[3] = seminal plasma, cervical and vaginal fluids; cited from earlier work
Text: (§1) In the absence of a safe and effective vaccine, there is an imperative demand for effective agents to reduce the 7,000 new HIV infections occurring every day. An attractive possibility is to identify the best drugs and drug combinations, delivered by optimal nBP methods such Intravaginal Rings (IVRs) for vaginal delivery and gels or enemas for rectal protection. We previously reported that C5A, a short, amphipathic, 18 amino acid (SWLRDIWDWICEVLSDFK) helical peptide, inhibits in vitro infectivity of a broad range of primary HIV isolates in various primary target cells. In this study, we ...

HIV = conditions: cited from earlier work
Text: as §1

[4] = tested on: cervical epithelial cells; conditions: at a concentration of 10- to 100-fold greater than that which blocks HIV infection; cited from earlier work
Text: The short amphipathic helical peptide SWLRDIWDWICEVLSDFK called C5A, was originally identified by the Chisari lab as an active anti-hepatitis C virus (HCV) agent. The C5A amino acid sequence encompasses the region that permits the anchoring of the HCV nonstructural protein 5A (NS5A) into the ER membrane by an in-plane amphipathic alpha-helix (Fig. 1).

## SWLRDIWDWICEVLSDFK [C5A]
[1]
  Macaques protected from SHIV-162P3 challenge: 89%
[2]
  Signs of lesions or inflammation: no signs of lesions or inflammation
HSV
  Inhibition of HSV infection: efficiently inhibits
HIV JR-CSF; rectal compartment
  Slope parameter (m) of median-effect plot: 7.7 ± 1.2
HIV JR-CSF; rectal dosing, read-out: EC50 for protection against rectal HIV challenge
  EC50: 25.7 µM
HIV JR-CSF; vaginal compartment
  Slope parameter (m) of median-effect plot: 7.6 ± 1.2
HIV JR-CSF; vaginal dosing, read-out: EC50 for protection against vaginal HIV challenge
  EC50: 32.5 µM
[3]
  Antiviral activities in genital fluids: maintains its antiviral activities
HIV; pH 5 to 7
  Antiviral activity between pH 5 and 7: keeps is antiviral activity
HIV; pH 8
  Antiviral activity at pH 8: loses its activity
HIV; topical vaginal administration of 200 µM C5A in PBS, humanized mice
  Protection against a vaginal challenge of HIV: 100%
[4]
  Toxicity to cervical epithelial cells: not toxic
